Test results from patent US20200187502A1, “MICROBIOCIDAL OXADIAZOLE DERIVATIVES” (SYNGENTA PARTICIPATIONS AG, priority 2017, published 2020).

How the values were obtained:
[1] = test system: Puccinia recondita f. Sp. Tritici; assay: Fungicidal activity, wheat leaf disc preventative (brown rust); assay type: in vivo; conditions: foliar, 200 ppm in the applied formulation, wheat leaf segments cv. Kanzler, compared to untreated control, 7 to 9 days after application, read-out: disease control
Method in brief: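 Preventative leaf-segment test: spray application of diluted formulated compound on wheat cv. Kanzler, spore inoculation after 1 day. Percent control relative to untreated segments rated 7 to 9 days post-application, with incubation at 19° C, 75% relative humidity, 12 h photoperiod.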

[2] = test system: Puccinia recondita f. Sp. Tritici; assay: Fungicidal activity, wheat leaf disc curative (brown rust); assay type: in vivo; conditions: foliar, 200 ppm in the applied formulation, wheat leaf segments cv. Kanzler, curative (applied 1 day after inoculation), compared to untreated control, 6 to 8 days after application, read-out: disease control
Method in brief: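 Curative leaf-segment test, cv. Kanzler: spore inoculation, dark storage 19° C/75% RH, compound spray 1 day post-inoculation. Then 12 h light/12 h dark, 19° C, 75% RH. Read-out: % disease control vs untreated check, 6–8 d after application.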

[3] = test system: Phakopsora pachyrhizi; assay: Fungicidal activity, soybean leaf disc preventative (Asian soybean rust); assay type: in vivo; conditions: foliar, 200 ppm in the applied formulation, soybean leaf disks, compared to untreated control, 12 to 14 days after application, read-out: disease control
Method in brief: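 Read-out is percent disease control relative to untreated check discs, assessed once untreated discs show adequate disease, 12 to 14 days after application. Compounds, tested at 200 ppm in the applied formulation, are sprayed onto soybean leaf discs one day before inoculation with a spore suspension.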

[4] = test system: Glomerella lacenarium (Colletotrichum lacenarium); assay: Fungicidal activity, liquid culture, cucumber preventative (anthracnose); assay type: cell-based; conditions: 20 ppm in the applied formulation, liquid culture in PDB, inhibition of growth measured photometrically 3 to 4 days after application, compared to untreated control, read-out: disease control
Method in brief: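 PDB broth seeded with cryo-stored conidia, added onto compound (DMSO solution) in 96-well plates; 24° C.; photometric growth read at 3–4 d post-application; % inhibition vs untreated check.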

CCN(Cc1ccc(-c2noc(C(F)(F)F)n2)s1)C(=O)NC [Compound 4.5, 1-ethyl-3-methyl-1-[[5-[5-(trifluoromethyl)-1,2,4-oxadiazol-3-yl]-2-thienyl]methyl]urea]
≥ 80%: pest or weed control at 200 ppm [1] | pest or weed control at 200 ppm [2] | pest or weed control at 200 ppm [3] | inhibition of growth at 20 ppm [4]

CCN(Cc1ccc(-c2noc(C(F)(F)F)n2)s1)C(=O)C(C)C [Compound 4.7, N-ethyl-2-methyl-N-[[5-[5-(trifluoromethyl)-1,2,4-oxadiazol-3-yl]-2-thienyl]methyl]propanamide]
≥ 80%: pest or weed control at 200 ppm [1] | pest or weed control at 200 ppm [2] | pest or weed control at 200 ppm [3] | inhibition of growth at 20 ppm [4]

CCNC(=O)N(CC)Cc1ccc(-c2noc(C(F)(F)F)n2)s1 [Compound 4.8, 1,3-diethyl-1-[[5-[5-(trifluoromethyl)-1,2,4-oxadiazol-3-yl]-2-thienyl]methyl]urea]
≥ 80%: pest or weed control at 200 ppm [1] | pest or weed control at 200 ppm [2] | pest or weed control at 200 ppm [3] | inhibition of growth at 20 ppm [4]

CCN(Cc1ccc(-c2noc(C(F)(F)F)n2)s1)C(=O)NC(C)C [Compound 4.9, 1-ethyl-3-isopropyl-1-[[5-[5-(trifluoromethyl)-1,2,4-oxadiazol-3-yl]-2-thienyl]methyl]urea]
≥ 80%: pest or weed control at 200 ppm [1] | pest or weed control at 200 ppm [2] | pest or weed control at 200 ppm [3] | inhibition of growth at 20 ppm [4]

CC(C)C(=O)N(C)Cc1ccc(-c2noc(C(F)(F)F)n2)s1 [Compound 4.10, N,2-dimethyl-N-[[5-[5-(trifluoromethyl)-1,2,4-oxadiazol-3-yl]-2-thienyl]methyl]propanamide]
≥ 80%: pest or weed control at 200 ppm [1] | pest or weed control at 200 ppm [2] | pest or weed control at 200 ppm [3] | inhibition of growth at 20 ppm [4]

CNC(=O)N(Cc1ccc(-c2noc(C(F)(F)F)n2)s1)C(C)C [Compound 4.13, 1-isopropyl-3-methyl-1-[[5-[5-(trifluoromethyl)-1,2,4-oxadiazol-3-yl]-2-thienyl]methyl]urea]
≥ 80%: pest or weed control at 200 ppm [1] | pest or weed control at 200 ppm [2] | pest or weed control at 200 ppm [3] | inhibition of growth at 20 ppm [4]

COC(C)C(=O)N(C)Cc1ccc(-c2noc(C(F)(F)F)n2)s1 (stereo not shown) [Compound 4.15, 2-methoxy-N-methyl-N-[[5-[5-(trifluoromethyl)-1,2,4-oxadiazol-3-yl]-2-thienyl]methyl]propanamide]
≥ 80%: pest or weed control at 200 ppm [1] | pest or weed control at 200 ppm [2] | pest or weed control at 200 ppm [3] | inhibition of growth at 20 ppm [4]

CCNC(=O)N(C)Cc1ccc(-c2noc(C(F)(F)F)n2)s1 [Compound 4.16, 3-ethyl-1-methyl-1-[[5-[5-(trifluoromethyl)-1,2,4-oxadiazol-3-yl]-2-thienyl]methyl]urea]
≥ 80%: pest or weed control at 200 ppm [1] | pest or weed control at 200 ppm [2] | pest or weed control at 200 ppm [3] | inhibition of growth at 20 ppm [4]

CC(C)NC(=O)N(C)Cc1ccc(-c2noc(C(F)(F)F)n2)s1 [Compound 4.17, 3-isopropyl-1-methyl-1-[[5-[5-(trifluoromethyl)-1,2,4-oxadiazol-3-yl]-2-thienyl]methyl]urea]
≥ 80%: pest or weed control at 200 ppm [1] | pest or weed control at 200 ppm [2] | pest or weed control at 200 ppm [3] | inhibition of growth at 20 ppm [4]

CNC(=O)N(Cc1ccc(-c2noc(C(F)(F)F)n2)s1)OCC(F)F [Compound 4.19, 1-(2,2-difluoroethoxy)-3-methyl-1-[[5-[5-(trifluoromethyl)-1,2,4-oxadiazol-3-yl]-2-thienyl]methyl]urea]
≥ 80%: pest or weed control at 200 ppm [1] | pest or weed control at 200 ppm [2] | pest or weed control at 200 ppm [3] | inhibition of growth at 20 ppm [4]

CCN(Cc1ccc(-c2noc(C(F)(F)F)n2)s1)C(=O)CCOC [Compound 4.25, N-ethyl-3-methoxy-N-[[5-[5-(trifluoromethyl)-1,2,4-oxadiazol-3-yl]-2-thienyl]methyl]propanamide]
≥ 80%: pest or weed control at 200 ppm [1] | pest or weed control at 200 ppm [2] | pest or weed control at 200 ppm [3] | inhibition of growth at 20 ppm [4]

CCC(=O)N(CC)Cc1ccc(-c2noc(C(F)(F)F)n2)s1 [Compound 4.26, N-ethyl-N-[[5-[5-(trifluoromethyl)-1,2,4-oxadiazol-3-yl]-2-thienyl]methyl]propanamide]
≥ 80%: pest or weed control at 200 ppm [1] | pest or weed control at 200 ppm [2] | pest or weed control at 200 ppm [3] | inhibition of growth at 20 ppm [4]

CCN(Cc1ccc(-c2noc(C(F)(F)F)n2)s1)C(=O)CCCOC [Compound 4.28, N-ethyl-4-methoxy-N-[[5-[5-(trifluoromethyl)-1,2,4-oxadiazol-3-yl]-2-thienyl]methyl]butanamide]
≥ 80%: pest or weed control at 200 ppm [1] | pest or weed control at 200 ppm [2] | pest or weed control at 200 ppm [3] | inhibition of growth at 20 ppm [4]

CC(=O)NCC(=O)N(C)Cc1ccc(-c2noc(C(F)(F)F)n2)s1 [Compound 4.33, 2-acetamido-N-methyl-N-[[5-[5-(trifluoromethyl)-1,2,4-oxadiazol-3-yl]-2-thienyl]methyl]acetamide]
≥ 80%: pest or weed control at 200 ppm [1] | pest or weed control at 200 ppm [2] | pest or weed control at 200 ppm [3] | inhibition of growth at 20 ppm [4]

COCCC(=O)N(C)Cc1ccc(-c2noc(C(F)(F)F)n2)s1 [Compound 4.35, 3-methoxy-N-methyl-N-[[5-[5-(trifluoromethyl)-1,2,4-oxadiazol-3-yl]-2-thienyl]methyl]propanamide]
≥ 80%: pest or weed control at 200 ppm [1] | pest or weed control at 200 ppm [2] | pest or weed control at 200 ppm [3] | inhibition of growth at 20 ppm [4]

CCC(C)C(=O)N(C)Cc1ccc(-c2noc(C(F)(F)F)n2)s1 (stereo not shown) [Compound 4.37, N,2-dimethyl-N-[[5-[5-(trifluoromethyl)-1,2,4-oxadiazol-3-yl]-2-thienyl]methyl]butanamide]
≥ 80%: pest or weed control at 200 ppm [1] | pest or weed control at 200 ppm [2] | pest or weed control at 200 ppm [3] | inhibition of growth at 20 ppm [4]

COCCCC(=O)N(C)Cc1ccc(-c2noc(C(F)(F)F)n2)s1 [Compound 4.38, 4-methoxy-N-methyl-N-[[5-[5-(trifluoromethyl)-1,2,4-oxadiazol-3-yl]-2-thienyl]methyl]butanamide]
≥ 80%: pest or weed control at 200 ppm [1] | pest or weed control at 200 ppm [2] | pest or weed control at 200 ppm [3] | inhibition of growth at 20 ppm [4]

CN(Cc1ccc(-c2noc(C(F)(F)F)n2)s1)C(=O)CC(F)(F)F [Compound 4.40, 3,3,3-trifluoro-N-methyl-N-[[5-[5-(trifluoromethyl)-1,2,4-oxadiazol-3-yl]-2-thienyl]methyl]propanamide]
≥ 80%: pest or weed control at 200 ppm [1] | pest or weed control at 200 ppm [2] | pest or weed control at 200 ppm [3] | inhibition of growth at 20 ppm [4]

COCCC(=O)N(Cc1ccc(-c2noc(C(F)(F)F)n2)s1)C(C)C [Compound 4.45, N-isopropyl-3-methoxy-N-[[5-[5-(trifluoromethyl)-1,2,4-oxadiazol-3-yl]-2-thienyl]methyl]propanamide]
≥ 80%: pest or weed control at 200 ppm [1] | pest or weed control at 200 ppm [2] | pest or weed control at 200 ppm [3] | inhibition of growth at 20 ppm [4]
